Measurements: US9382208B1, “Negative allosteric modulators of metabotropic glutamate receptor 2” (Vanderbilt University, priority 2015, dated 2016)

Molecular target: T1, rat mGlu2 (Rattus norvegicus, UniProt P31421)
T1 construct: expressed in transfected cells
Assay: mGlu2 Ca2+ flux assay
Format: cell-based
Details: for IC50: Gα15 HEK293 cells stably expressing rat mGlu2, glutamate EC80 addition, read-out: rat mGlu2 IC50; for remaining activity at 30 µM: amplitude of response in the presence of 30 μM test compound as percentage of maximal response to glutamate, read-out: rat mGlu2 Glu max (%)
Protocol: Gα15 HEK293 cells stably expressing rat mGlu2 were plated in black-walled, clear-bottomed, poly-D-lysine coated 384-well plates in 20 μL of assay medium (DMEM containing 10% dialyzed FBS, 20 mM HEPES, and 1 mM sodium pyruvate) at a density of 12K cells/well. The cells were grown overnight at 37° C. in the presence of 5% CO2. The next day, medium was removed and the cells incubated with 20 μL of 2.3 μM Fluo-4, AM prepared as a 2.3 mM stock in DMSO and mixed in a 1:1 ratio with 10% (w/v) pluronic acid F-127 and diluted in assay buffer (Hank's balanced salt solution, 20 mM HEPES, and 2.5 mM probenecid) for 45 minutes at 37° C. Dye was removed, 20 μL of assay buffer was added, and the plate was incubated for 5 minutes at room temperature.
Ca^2+ flux was measured using the Functional Drug Screening System (FDSS7000, Hamamatsu, Japan). After establishment of a fluorescence baseline for about 3 seconds, the compounds of the present invention were added to the cells, and the response in cells was measured. 2.3 minutes later an EC20 concentration of the mGlu2 receptor agonist glutamate was added to the cells, and the response of the cells was measured for 1.9 minutes; an EC80 concentration of agonist was added and readings taken for an additional 1.7 minutes. All test compounds were dissolved and diluted to a concentration of 10 mM in 100% DMSO. Compounds were then serially diluted 1:3 in DMSO into 10 point concentration response curves, transferred to daughter plates, and further diluted into assay buffer to a 2× stock. Calcium fluorescence measures were recorded as fold over basal fluorescence; raw data was then normalized to the maximal response to glutamate. Antagonism of the agonist response of the mGlu2 receptor in the present invention was observed as a decrease in response to nearly maximal concentrations of glutamate in the presence of compound compared to the response to glutamate in the absence of compound.
The raw data file containing all time points was used as the data source in the analysis template. This was saved by the FDSS as a tab-delimited text file. Data were normalized using a static ratio function (F/F0) for each measurement of the total 360 values per well divided by each well's initial value. Data were then reduced to peak amplitudes (Max−Initial Min) using a time range that starts approximately 3 seconds prior to the glutamate EC80 addition and continues for approximately 90 seconds. This is sufficient time to capture the peak amplitude of the cellular calcium response. Individual amplitudes were expressed as % ECMax by multiplying each amplitude by 100 and then dividing the product by the mean of the amplitudes derived from the glutamate ECMax-treated wells. IC50 values for test compounds were generated by fitting the normalized values versus the log of the test compound concentration (in mol/L) using a 4 parameter logistic equation where none of the parameters were fixed. Each of the three values collected at each concentration of test compound were weighted evenly.
For NAMs, potency (IC50) and maximum response (% Glu Max), i.e. the amplitude of response in the presence of 30 μM test compound as a percentage of the maximal response to glutamate, are reported. […] Compounds with no measurable activity are designated as “>30,000 nM” since the top concentration of compound tested in the assay is 30 μM.

T1 sequence (P31421 19-872): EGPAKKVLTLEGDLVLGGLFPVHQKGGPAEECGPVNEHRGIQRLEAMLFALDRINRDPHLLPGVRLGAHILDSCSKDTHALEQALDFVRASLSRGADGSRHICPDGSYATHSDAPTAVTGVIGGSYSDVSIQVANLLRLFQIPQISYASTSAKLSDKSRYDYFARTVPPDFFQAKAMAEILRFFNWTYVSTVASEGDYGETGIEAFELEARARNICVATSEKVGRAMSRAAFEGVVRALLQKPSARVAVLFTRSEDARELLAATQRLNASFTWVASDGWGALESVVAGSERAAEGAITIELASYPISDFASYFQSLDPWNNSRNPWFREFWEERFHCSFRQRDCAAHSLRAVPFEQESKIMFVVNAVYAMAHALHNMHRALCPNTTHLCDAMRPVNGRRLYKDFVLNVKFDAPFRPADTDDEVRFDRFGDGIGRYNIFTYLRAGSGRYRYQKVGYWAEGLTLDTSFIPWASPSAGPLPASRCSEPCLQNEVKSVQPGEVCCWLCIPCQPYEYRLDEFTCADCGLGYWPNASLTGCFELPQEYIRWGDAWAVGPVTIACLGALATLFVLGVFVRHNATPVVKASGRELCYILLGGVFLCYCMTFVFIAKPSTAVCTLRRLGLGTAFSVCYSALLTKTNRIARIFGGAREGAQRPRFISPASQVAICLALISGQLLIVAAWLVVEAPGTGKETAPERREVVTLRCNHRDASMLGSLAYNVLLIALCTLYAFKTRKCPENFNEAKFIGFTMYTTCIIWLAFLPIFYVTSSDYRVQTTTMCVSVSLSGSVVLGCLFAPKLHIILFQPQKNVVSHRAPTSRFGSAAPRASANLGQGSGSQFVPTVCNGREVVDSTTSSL

Compound | IC50 | remaining activity at 30 µM
CN(Cc1cccnc1)c1cc2c(=O)c(C(N)=O)cn(-c3ccc(F)cc3)c2cc1F [Compound 52, 7-Fluoro-1-(4-fluorophenyl)-6-(methyl(pyridin-3-ylmethyl)amino)-4-oxo-1,4-dihydroquinoline-3-carboxamide] | 669 nM | 2.26%
NC(=O)c1cn(-c2ccc(F)cc2)c2ccc(NCC3CCOCC3)cc2c1=O [Compound 53, 1-(4-fluorophenyl)-4-oxo-6-(((tetrahydro-2H-pyran-4-yl)methyl)amino)-1,4-dihydroquinoline-3-carboxamide] | 659 nM | 1.04%
Cc1ncc(CCc2cc3c(=O)c(C(N)=O)cn(-c4ccc(F)cc4)c3cc2F)cn1 [Compound 54, 7-fluoro-1-(4-fluorophenyl)-6-(2-(2-methylpyrimidin-5-yl)ethyl)-4-oxo-1,4-dihydroquinoline-3-carboxamide] | 2700 nM | 1.02%
Cc1ccc(Oc2ccc3c(c2)c(=O)c(C(N)=O)cn3-c2ccc(F)cc2)cn1 [Compound 55, 1-(4-Fluorophenyl)-6-((6-methylpyridin-3-yl)oxy)-4-oxo-1,4-dihydroquinoline-3-carboxamide] | 1710 nM | 1.96%
NC(=O)c1cn(-c2ccc(F)cc2)c2ccc(Oc3cccnc3)cc2c1=O [Compound 56, 1-(4-fluorophenyl)-4-oxo-6-(pyridin-3-yloxy)-1,4-dihydroquinoline-3-carboxamide] | 882 ± 160 nM | 1.84 ± 0.47%
Cc1ncc(Oc2ccc3c(c2)c(=O)c(C(N)=O)cn3-c2ccc(F)cc2)cn1 [Compound 57, 1-(4-fluorophenyl)-6-((2-methylpyrimidin-5-yl)oxy)-4-oxo-1,4-dihydroquinoline-3-carboxamide] | 4480 nM | 15.7%
NC(=O)c1cn(-c2ccc(F)cc2)c2ccc(Oc3ccc(F)nc3)cc2c1=O [Compound 58, 1-(4-fluorophenyl)-6-((6-fluoropyridin-3-yl)oxy)-4-oxo-1,4-dihydroquinoline-3-carboxamide] | 1360 nM | 1.18%
NC(=O)c1cn(-c2ccc(F)cc2)c2ccc(Oc3cncc(F)c3)cc2c1=O [Compound 59, 1-(4-fluorophenyl)-6-((5-fluoropyridin-3-yl)oxy)-4-oxo-1,4-dihydroquinoline-3-carboxamide] | 2110 nM | 0.44%
NC(=O)c1cn(-c2ccc(F)cc2)c2ccc(-c3cccnc3)cc2c1=O [Compound 60, 1-(4-fluorophenyl)-4-oxo-6-(pyridin-3-yl)-1,4-dihydroquinoline-3-carboxamide] | 277 nM | 1.33%
Cn1cc(-c2ccc3c(c2)c(=O)c(C(N)=O)cn3-c2ccc(F)cc2)cn1 [Compound 61, 1-(4-fluorophenyl)-6-(1-methyl-1H-pyrazol-4-yl)-4-oxo-1,4-dihydroquinoline-3-carboxamide] | 544 nM | 0.41%
Cc1ncc(-c2ccc3c(c2)c(=O)c(C(N)=O)cn3-c2ccc(F)cc2)cn1 [Compound 62, 1-(4-fluorophenyl)-6-(2-methylpyrimidin-5-yl)-4-oxo-1,4-dihydroquinoline-3-carboxamide] | > 10000 nM | 30.3%
NC(=O)c1cn(-c2ccc(F)cc2)c2ccc(-c3ccncc3)cc2c1=O [Compound 63, 1-(4-fluorophenyl)-4-oxo-6-(pyridin-4-yl)-1,4-dihydroquinoline-3-carboxamide] | 407 nM | 0.97%
C[C@@H]1CN(Cc2ccc3c(c2)c(=O)c(C(N)=O)cn3-c2ccc(F)cc2)C[C@H](C)O1 [Compound 64, 6-((cis-2,6-Dimethylmorpholino)methyl)-1-(4-fluorophenyl)-4-oxo-1,4-dihydroquinoline-3-carboxamide] | 222 ± 36 nM | 1.42 ± 0.51%
NC(=O)c1cn(-c2ccc(F)cc2)c2ccc(CN3CC4(C3)CC(F)(F)C4)cc2c1=O [Compound 65, 6-((6,6-difluoro-2-azaspiro[3.3]heptan-2-yl)methyl)-1-(4-fluorophenyl)-4-oxo-1,4-dihydroquinoline-3-carboxamide] | 2020 nM | 1.93%
NC(=O)c1cn(-c2ccc(F)cc2)c2ccc(CN3CCN(C4CC4)CC3)cc2c1=O [Compound 66, 6-((4-cyclopropylpiperazin-1-yl)methyl)-1-(4-fluorophenyl)-4-oxo-1,4-dihydroquinoline-3-carboxamide] | 1290 nM | 1.89%
NC(=O)c1cn(-c2ccc(F)cc2)c2ccc(CN3CCCC4CCCCC43)cc2c1=O (stereo not drawn) [Compound 67, 1-(4-fluorophenyl)-6-((octahydroquinolin-1(2H)-yl)methyl)-4-oxo-1,4-dihydroquinoline-3-carboxamide] | 617 nM | 2.4%
CC1CCN(C)CCN1Cc1ccc2c(c1)c(=O)c(C(N)=O)cn2-c1ccc(F)cc1 (stereo not drawn) [Compound 68, 6-((4,7-dimethyl-1,4-diazepan-1-yl)methyl)-1-(4-fluorophenyl)-4-oxo-1,4-dihydroquinoline-3-carboxamide] | 4040 nM | 2.47%
CN(Cc1ccc2c(c1)c(=O)c(C(N)=O)cn2-c1ccc(F)cc1)C1CCCC1 [Compound 69, 6-((cyclopentyl(methyl)amino)methyl)-1-(4-fluorophenyl)-4-oxo-1,4-dihydroquinoline-3-carboxamide] | 2190 nM | 1.39%
CN(Cc1ccc2c(c1)c(=O)c(C(N)=O)cn2-c1ccc(F)cc1)C1CC1 [Compound 70, 6-((cyclopropyl(methyl)amino)methyl)-1-(4-fluorophenyl)-4-oxo-1,4-dihydroquinoline-3-carboxamide] | 821 nM | 1.33%
NC(=O)c1cn(-c2ccc(F)cc2)c2ccc(CN3CCCSCC3)cc2c1=O [Compound 71, 6-((1,4-thiazepan-4-yl)methyl)-1-(4-fluorophenyl)-4-oxo-1,4-dihydroquinoline-3-carboxamide] | 164 nM | 2.06%
NC(=O)c1cn(-c2ccc(F)cc2)c2ccc(CN3CCCOCC3)cc2c1=O [Compound 72, 6-((1,4-oxazepan-4-yl)methyl)-1-(4-fluorophenyl)-4-oxo-1,4-dihydroquinoline-3-carboxamide] | > 10000 nM | 29.6%
NC(=O)c1cn(-c2ccc(F)cc2)c2ccc(CN3CCCCCC3)cc2c1=O [Compound 73, 6-(azepan-1-ylmethyl)-1-(4-fluorophenyl)-4-oxo-1,4-dihydroquinoline-3-carboxamide] | 2590 nM | 0.96%
COC1CCN(Cc2ccc3c(c2)c(=O)c(C(N)=O)cn3-c2ccc(F)cc2)CC1 [Compound 74, 1-(4-fluorophenyl)-6-((4-methoxypiperidin-1-yl)methyl)-4-oxo-1,4-dihydroquinoline-3-carboxamide] | 1880 nM | 1.23%
N#CC1CCN(Cc2ccc3c(c2)c(=O)c(C(N)=O)cn3-c2ccc(F)cc2)CC1 [Compound 75, 6-((4-cyanopiperidin-1-yl)methyl)-1-(4-fluorophenyl)-4-oxo-1,4-dihydroquinoline-3-carboxamide] | 735 nM | 1.02%
